Test results taken from ChEMBL document CHEMBL1201862, “PubChem BioAssay data set” (2004).
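The compound was tested at five concentrations on cells cultured in 96-well plates, with a 48-hour exposure period. GI50 marks 50% less growth.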 Calls of active or inactive are those of the source. Rule as the data show it: active = GI50 up to about 1.1 µM and inactive = higher.

Key:
Assay in all cases: DTP human tumour cell line panel, 48 h
UO-31 = system: UO-31
EKVX = system: EKVX
786-0 = system: 786-0
HL-60 = system: HL-60
HOP-92 = system: HOP-92
NCI-H460 = system: NCI-H460
OVCAR-3 = system: OVCAR-3
RPMI-8226 = system: RPMI-8226
A549 = system: A549
SK-OV-3 = system: SK-OV-3
SNB-78 = system: SNB-78
CAKI-1 = system: CAKI-1
HCT-116 = system: HCT-116
LXFL 529 = system: LXFL 529
MOLT-4 = system: MOLT-4
M14 = system: M14
HCC 2998 = system: HCC 2998
SF-295 = system: SF-295

SMILES	GI50 (UO-31)	GI50 (EKVX)	GI50 (786-0)	GI50 (HL-60)	GI50 (HOP-92)	GI50 (NCI-H460)	GI50 (OVCAR-3)	GI50 (RPMI-8226)	GI50 (A549)	GI50 (SK-OV-3)	GI50 (SNB-78)	GI50 (CAKI-1)	GI50 (HCT-116)	GI50 (LXFL 529)	GI50 (MOLT-4)	GI50 (M14)	GI50 (HCC 2998)	GI50 (SF-295)
Cc1ccc(N(C(=O)CC(=O)NN)C(=O)c2ccccc2Cl)cc1	> 100 µM (inactive)	> 100 µM (inactive)	> 100 µM (inactive)	> 100 µM (inactive)	> 100 µM (inactive)	> 100 µM (inactive)	> 100 µM (inactive)	> 100 µM (inactive)	> 100 µM (inactive)	> 100 µM (inactive)	> 100 µM (inactive)	> 100 µM (inactive)	> 100 µM (inactive)	> 100 µM (inactive)	> 100 µM (inactive)	> 100 µM (inactive)	> 100 µM (inactive)	> 100 µM (inactive)
Cn1nc(N)nc1N=S(C)(C)=N	88.9 µM (inactive)	> 100 µM (inactive)	> 100 µM (inactive)	> 100 µM (inactive)	> 100 µM (inactive)	> 100 µM (inactive)	> 100 µM (inactive)	> 100 µM (inactive)	> 100 µM (inactive)	> 100 µM (inactive)	> 100 µM (inactive)	> 100 µM (inactive)		> 100 µM (inactive)	> 100 µM (inactive)	> 100 µM (inactive)	> 100 µM (inactive)	> 100 µM (inactive)
COC(=O)CC(NC(=O)OCc1ccccc1)C(C(C)=O)C(=O)OCc1ccccc1 (stereo not given)	> 31.6 µM (inactive)	> 31.6 µM (inactive)	> 31.6 µM (inactive)	> 31.6 µM (inactive)	> 31.6 µM (inactive)	> 31.6 µM (inactive)	> 31.6 µM (inactive)	> 31.6 µM (inactive)	> 31.6 µM (inactive)	> 31.6 µM (inactive)	> 31.6 µM (inactive)	> 31.6 µM (inactive)	> 31.6 µM (inactive)	5.48 µM (inactive)	> 31.6 µM (inactive)	> 31.6 µM (inactive)	> 10 µM (inactive)	> 100 µM (inactive)
CC1=Nc2c(ccc3c2C(=O)c2ccccc2C3=O)NC(c2ccncc2)C1 (stereo not given)	4.72 µM (inactive)	> 10 µM (inactive)	> 10 µM (inactive)	0.798 µM (active)	> 10 µM (inactive)	> 10 µM (inactive)	> 10 µM (inactive)	4.84 µM (inactive)	13.3 µM (inactive)	6.49 µM (inactive)	> 10 µM (inactive)	7.98 µM (inactive)	41.5 µM (inactive)	> 10 µM (inactive)	3.73 µM (inactive)	> 10 µM (inactive)	> 10 µM (inactive)	> 10 µM (inactive)
CC1(C)COC(c2ccc(C(F)(F)F)cc2C(O)c2ccc3ccccc3c2)=N1 (stereo not given)	> 10 µM (inactive)	> 10 µM (inactive)	> 10 µM (inactive)	78.3 µM (inactive)	41.4 µM (inactive)	> 10 µM (inactive)	> 10 µM (inactive)	> 100 µM (inactive)	99.5 µM (inactive)	> 10 µM (inactive)	89.3 µM (inactive)	94.6 µM (inactive)	> 10 µM (inactive)	> 10 µM (inactive)	> 10 µM (inactive)	> 10 µM (inactive)	> 10 µM (inactive)	20.7 µM (inactive)
Cc1ccccc1NC(=O)C(=O)CC(=O)c1sc(-n2nc(-c3ccccc3)cc2-c2ccccc2)nc1C	> 100 µM (inactive)	> 100 µM (inactive)	> 100 µM (inactive)	> 100 µM (inactive)	> 100 µM (inactive)	> 100 µM (inactive)	> 100 µM (inactive)	> 100 µM (inactive)	> 100 µM (inactive)	> 100 µM (inactive)	> 100 µM (inactive)	> 100 µM (inactive)	> 100 µM (inactive)	> 100 µM (inactive)	> 100 µM (inactive)	> 100 µM (inactive)	> 100 µM (inactive)	> 100 µM (inactive)
COc1cc2c[n+](C)c3c4cc(OC)c(OC(C)C)cc4ccc3c2cc1OC	> 100 µM (inactive)	> 100 µM (inactive)	> 100 µM (inactive)	35.2 µM (inactive)	73.6 µM (inactive)	75.3 µM (inactive)	10.5 µM (inactive)	36.2 µM (inactive)	77.6 µM (inactive)	> 100 µM (inactive)	50 µM (inactive)	> 100 µM (inactive)	> 100 µM (inactive)	7.35 µM (inactive)	50.5 µM (inactive)	84.9 µM (inactive)	44.2 µM (inactive)	> 100 µM (inactive)
